Results from patent US11136301B2, “Broad spectrum antiviral compounds and uses thereof” (The Regents Of The University Of California, priority 2015, dated 2021).
Where two headings read alike, the source gives them in different places.

Test system: wild-type HIV-1 (HIV-1LAI) in H9 cells (non-permissive)
Experiment: microbe, parasite or virus in culture
Type: cell-based
[1] = Human immunodeficiency virus 1, H9, read-out: Antiviral activity (IC50 μM) H9 cells, Table 5, wild-type HIV-1, non-permissive H9 cells
[2] = Human immunodeficiency virus 1, H9, read-out: Antiviral activity (IC50 μM) H9 cells, Table 8, wild-type HIV-1, non-permissive H9 cells
[3] = Human immunodeficiency virus 1, H9, read-out: Antiviral activity (IC50 μM) H9 cells, wild-type HIV-1 (HIV-1LAI), H9 cells (non-permissive), RT activity in culture supernatants, compounds 1 to 50 μM
[4] = read-out: Antiviral activity (IC50 μM) H9 cells, Table 5, wild-type HIV-1, non-permissive H9 cells
[5] = read-out: Antiviral activity (IC50 μM) H9 cells, Table 8, wild-type HIV-1, non-permissive H9 cells
[6] = read-out: Antiviral activity (IC50 μM) H9 cells, wild-type HIV-1 (HIV-1LAI), H9 cells (non-permissive), RT activity in culture supernatants, compounds 1 to 50 μM
[7] = read-out: Antiviral activity (IC50 μM) H9, Table 2, wild-type HIV-1, non-permissive H9 cells

Structure (SMILES)	IC50 [1] [µM]	IC50 [2] [µM]	IC50 [3] [µM]	IC50 [4] [µM]	IC50 [5] [µM]	IC50 [6] [µM]	other results
COc1ccc(-n2cc(-c3ccccc3S(=O)(=O)c3ccc(C(=O)O)cc3)nn2)c(OC)c1 [Compound 4fy, 4-((2-(1-(2,4-Dimethoxyphenyl)-1H-1,2,3-triazol-4-yl)phenyl)sulfonyl)benzoic Acid]	> 50	> 50	> 50				
COc1ccc(-n2cc(-c3ccccc3Sc3ccc(C(=O)O)cc3)nn2)c(OC)c1 [Compound 4gx, 2-Hydroxy-N,N,N-trimethylethanaminium 4-((2-(1-(2,4-dimethoxyphenyl)-1H-1,2,3-triazol-4-yl)phenyl)thio)benzoate]				> 50	> 50	> 50	
COc1ccc(OC)c(-n2cc(-c3ccccc3S(=O)(=O)c3ccc(C(F)(F)F)cc3)nn2)c1 [Compound 5dy, 1-(2,5-Dimethoxyphenyl)-4-(2-((4-(trifluoromethyl)phenyl)sulfonyl)phenyl)-1H-1,2,3-triazole]	4.3	4.3	4.3				
COc1ccc(OC)c(-n2cc(-c3ccccc3Sc3ccc(C(=O)O)cc3)nn2)c1 [Compound 5gx, 2-Hydroxy-N,N,N-trimethylethanaminium 4-((2-(1-(2,5-dimethoxyphenyl)-1H-1,2,3-triazol-4-yl)phenyl)thio)benzoate]				> 50	> 50	> 50	
COc1cccc(OC)c1-n1cc(-c2ccccc2Sc2ccc([N+](=O)[O-])cc2)nn1 [Compound 6ax, 1-(2,6-Dimethoxyphenyl)-4-(2-((4-nitrophenyl)thio)phenyl)-1H-1,2,3-triazole]	6.3	6.3	6.3				
COc1ccc(Sc2ccccc2-c2cn(-c3c(OC)cccc3OC)nn2)cc1 [Compound 6cx, 1-(2,6-Dimethoxyphenyl)-4-(2-((4-methoxyphenyl)thio)phenyl)-1H-1,2,3-triazole]	> 50	> 50	> 50				
COc1cccc(OC)c1-n1cc(-c2ccccc2Sc2ccc(C(F)(F)F)cc2)nn1 [Compound 6dx, 1-(2,6-Dimethoxyphenyl)-4-(2-((4-(trifluoromethyl)phenyl)thio)phenyl)-1H-1,2,3-triazole]	5.3	5.3	5.3				
COc1cccc(OC)c1-n1cc(-c2ccccc2S(=O)(=O)c2ccc(C(F)(F)F)cc2)nn1 [Compound 6dy, 1-(2,6-Dimethoxyphenyl)-4-(2-((4-(trifluoromethyl)phenyl)sulfonyl)phenyl)-1H-1,2,3-triazole]	> 50	> 50	> 50				
COc1cccc(OC)c1-n1cc(-c2ccccc2Sc2ccc(N)cc2)nn1 [Compound 6ex, 4-((2-(1-(2,6-Dimethoxyphenyl)-1H-1,2,3-triazol-4-yl)phenyl)thio)amine]	1.5	1.5	1.5				IC50 (Human immunodeficiency virus 1, H9, read-out: Antiviral activity (IC50 μM) H9 Cells, Table 4, wild-type HIV-1, non-permissive H9 cells): 1.5 µM; IC50 (Human immunodeficiency virus 1, H9, read-out: Antiviral activity (IC50 μM) H9 Cells, Table 7, wild-type HIV-1, non-permissive H9 cells): 1.5 µM; IC50 (Human immunodeficiency virus 1, H9, read-out: IC50, anti-HIV-1 activity, non-permissive H9 cells): 1 to 3 µM
COc1cccc(OC)c1-n1cc(-c2ccccc2Sc2ccc(C(=O)O)cc2)nn1 [Compound 6gx, 2-Hydroxy-N,N,N-trimethylethanaminium 4-((2-(1-(2,6-dimethoxyphenyl)-1H-1,2,3-triazol-4-yl)phenyl)thio)benzoate]				52	52	52	IC50 [7]: 52 µM
COc1cccc(OC)c1-n1cc(-c2ccccc2S(=O)(=O)c2ccc(C(=O)O)cc2)nn1 [Compound 6gy, 2-Hydroxy-N,N,N-trimethylethanaminium 4-((2-(1-(2,6-dimethoxyphenyl)-1H-1,2,3-triazol-4-yl)phenyl)sulfonyl)benzoate]				> 50	> 50	> 50	IC50 [7]: > 50 µM
COC(=O)c1ccc(S(=O)(=O)c2ccccc2-c2cn(-c3c(F)cccc3OC)nn2)cc1 [Compound 7by, Methyl 4-((2-(1-(2-fluoro-6-methoxyphenyl)-1H-1,2,3-triazol-4-yl)phenyl)sulfonyl)benzoate]	> 50	> 50	> 50				
